Test results as given in patent US7560468B2, “Substituted 1,4,8-triazaspiro[4,5]decan-2-one compounds” (Gruenenthal GmbH, priority 2004, dated 2009).

Target: T1, 5-HT transporter (Rattus norvegicus, UniProt P31652)
T1 construct: from tissue; host or cells: rat brain synaptosomes (marrow/medulla and pons), P2 fraction
Experiment: Inhibition of 5-HT uptake in synaptosomes
Type: biochemical
Settings: rat, 1 μM

T1 sequence (P31652 whole entry): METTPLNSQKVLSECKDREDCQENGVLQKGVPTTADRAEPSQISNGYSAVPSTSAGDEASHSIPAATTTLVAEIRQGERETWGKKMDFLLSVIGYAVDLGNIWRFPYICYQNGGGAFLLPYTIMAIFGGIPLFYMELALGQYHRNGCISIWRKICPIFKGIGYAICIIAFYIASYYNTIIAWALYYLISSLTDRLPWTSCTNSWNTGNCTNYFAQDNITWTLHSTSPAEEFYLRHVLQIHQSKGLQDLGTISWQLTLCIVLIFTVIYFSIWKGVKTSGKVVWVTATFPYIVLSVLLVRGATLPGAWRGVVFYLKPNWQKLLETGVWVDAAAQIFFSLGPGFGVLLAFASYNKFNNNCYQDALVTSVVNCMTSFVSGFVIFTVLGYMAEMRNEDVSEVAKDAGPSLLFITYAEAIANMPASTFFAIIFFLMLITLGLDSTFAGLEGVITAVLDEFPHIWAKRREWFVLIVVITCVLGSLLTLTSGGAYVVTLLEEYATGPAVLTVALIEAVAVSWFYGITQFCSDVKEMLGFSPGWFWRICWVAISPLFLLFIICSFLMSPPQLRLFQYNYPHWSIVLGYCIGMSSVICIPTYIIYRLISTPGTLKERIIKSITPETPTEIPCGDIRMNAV

| Uptake_5-HT, rat, 1 μM, % inhibition | Molecule |
| --- | --- |
| 56% | CCCCN1C(=O)C(CCSC)NC12CCN(S(=O)(=O)c1ccc(C(C)=O)cc1)CC2 (centres unmarked) [Example 13, 8-(4-Acetylbenzolsulfonyl)-1-butyl-3-(2-methylsulfanylethyl)-1,4,8-triazaspiro[4,5]decan-2-one] |
| 56% | CCC(C)(C)c1ccc(S(=O)(=O)N2CCC3(CC2)NC(CCSC)C(=O)N3Cc2ccccc2)cc1 (centres unmarked) [Example 41, 1-Benzyl-8-[4-(1,1-dimethylpropyl)benzolesulfonyl]-3-(2-methylsulfanylethyl)-1,4,8-triazaspiro[4,5]decan-2-one] |
| 55% | C=CCN1C(=O)C(C(C)C)NC12CCN(C(=S)Nc1c(F)c(F)c(F)c(F)c1F)CC2 (centres unmarked) [Example 149, 1-Allyl-3-isopropyl-2-oxo-1,4,8-triazaspiro[4,5]decan-8-thiocarboxylic acid pentafluorobenzolamide-amide] |

Same assay, conditions: read-out: 5-HT uptake: Km; characteristic data of the 5-HT transporter

| Molecule | Km |
| --- | --- |
| NCCc1c[nH]c2ccc(O)cc12 [Example 5-HT, serotonin, reference compound] | 0.084 ± 0.011 µM |

Same assay, conditions: read-out: Uptake_5-HT, rat, 1 μM, % inhibition

| inhibition at 1 µM | Molecule |
| --- | --- |
| 47% | CCOC(=O)CN1C(=O)C(Cc2ccccc2)NC12CCN(C(=S)NC(=O)OCC)CC2 (centres unmarked) [Example 144, Ethyl(3-benzyl-8-ethoxycarbonylaminocarbothioyl-2-oxo-1,4,8-triazaspiro[4,5]dec-1-yl)acetate] |
| 32% | CSCCC1NC2(CCN(C(=S)NC(C)C)CC2)N(Cc2ccc(F)cc2)C1=O (centres unmarked) [Example 176, 1-(4-Fluorobenzyl)-3-(2-methylsulfanylethyl)-2-oxo-1,4,8-triazaspiro[4,5]decan-8-thiocarboxylic acid isopropylamide] |

Tested on: batrachotoxin (BTX) binding site of the sodium channel
Experiment: Affinity to the batrachotoxin (BTX) binding site of the sodium channel
Settings: rat cerebrocortex synaptosomes, [3H]-batrachotoxinin A20 α-benzoate 10 nM; test concentration not given

| Molecule | BTX Inhibition |
| --- | --- |
| CSCCC1NC2(CCN(C(=S)NCc3cc(F)ccc3F)CC2)N(C)C1=O (centres unmarked) [Example 138, 1-Methyl-3-(2-methylsulfanylethyl)-2-oxo-1,4,8-triazaspiro[4,5]decan-8-thiocarboxylic acid (2,5-difluorobenzol)amide] | 34 |
| CCCCN1C(=O)C(C(C)C)NC12CCN(S(=O)(=O)c1ccc(F)cc1F)CC2 (centres unmarked) [Example 19, 1-Butyl-8-(2,4-difluorobenzolsulfonyl)-3-isopropyl-1,4,8-triazaspiro[4,5]decan-2-one] | 30 |
| C=CCNC(=S)N1CCC2(CC1)NC(C(C)C)C(=O)N2Cc1ccc(C(=O)OC)cc1 (centres unmarked) [Example 126, Methyl 4-(8-allylthiocarbamoyl-3-isopropyl-2-oxo-1,4,8-triazaspiro[4,5]dec-1-ylmethyl)benzoate] | 37 |
| O=C1C(Cc2ccccc2)NC2(CCN(C(=S)NCc3ccc(Cl)cc3)CC2)N1Cc1ccccc1F (centres unmarked) [Example 197, 3-Benzyl-1-(2-fluorobenzyl)-2-oxo-1,4,8-triazaspiro[4,5]decan-8-thiocarboxylic acid 4-chlorobenzylamide] | 77 |
| COc1ccc(CNC(=S)N2CCC3(CC2)NC(CCSC)C(=O)N3C)cc1 (centres unmarked) [Example 111, 1-Methyl-3-(2-methylsulfanylethyl)-2-oxo-1,4,8-triazaspiro[4,5]decan-8-thiocarboxylic acid 4-methoxy-benzylamide] | 51 |
| COc1ccc(S(=O)(=O)N2CCC3(CC2)NCC(=O)N3Cc2ccccc2F)cc1 [Example 64, 1-(2-Fluorobenzyl)-8-(4-methoxy-benzolsulfonyl)-1,4,8-triazaspiro[4,5]decan-2-one] | 42 |
| CSCCC1NC2(CCN(C(=S)NCc3ccc(Cl)cc3)CC2)N(C)C1=O (centres unmarked) [Example 133, 1-Methyl-3-(2-methylsulfanylethyl)-2-oxo-1,4,8-triazaspiro[4,5]decan-8-thiocarboxylic acid (4-chlorobenzol)amide] | 44 |
| CCCCN1C(=O)C(CCSC)NC12CCN(C(=S)NCc1ccccc1OC)CC2 (centres unmarked) [Example 127, 1-Butyl-3-(2-methylsulfanylethyl)-2-oxo-1,4,8-triazaspiro[4,5]decan-8-thiocarboxylic acid (2-methoxy-benzol)amide] | 44 |
| CC(=O)c1cccc(NC(=S)N2CCC3(CC2)NC(CC(C)C)C(=O)N3Cc2ccccc2C#N)c1 (centres unmarked) [Example 141, 1-(2-Cyanobenzyl)-3-isobutyl-2-oxo-1,4,8-triazaspiro[4,5]decan-8-thiocarboxylic acid (3-acetylbenzol)amide] | 50 |
| CC(C)C1NC2(CCN(S(=O)(=O)c3ccc(F)c(Cl)c3)CC2)N(CCOc2ccccc2)C1=O (centres unmarked) [Example 17, 8-(3-Chloro-4-fluorobenzolsulfonyl)-3-isopropyl-1-(2-phenoxy-ethyl)-1,4,8-triazaspiro[4,5]decan-2-one] | 41 |
| Methyl 4-[8-(2,6-dichlorobenzolthiocarbamoyl)-3-isopropyl-2-oxo-1,4,8-triazaspiro[4,5]dec-1-ylmethyl]-benzoate [Example 135] | 38 |
| CSCCC1NC2(CCN(C(=S)NCc3ccc(F)cc3)CC2)N(C)C1=O (centres unmarked) [Example 134, 1-Methyl-3-(2-methylsulfanylethyl)-2-oxo-1,4,8-triazaspiro[4,5]decan-8-thiocarboxylic acid 4-fluorobenzylamide] | 50 |
| CSCCC1NC2(CCN(C(=S)NC(C)c3ccccc3)CC2)N(Cc2ccc(F)cc2)C1=O (centres unmarked) [Example 196, 1-(4-Fluorobenzyl)-3-(2-methylsulfanylethyl)-2-oxo-1,4,8-triazaspiro[4,5]decan-8-thiocarboxylic acid (1-benzol-ethyl)amide] | 70 |
| C=CCN1C(=O)C(CCSC)NC12CCN(S(=O)(=O)c1ccc3c(c1)CN(C(=O)C(F)(F)F)CC3)CC2 (centres unmarked) [Example 78, 1-Allyl-3-(2-methylsulfanylethyl)-8-[2-(2,2,2-trifluoroacetyl)-1,2,3,4-tetrahydroisoquinolin-7-sulfonyl]-1,4,8-triazaspiro[4,5]decan-2-one] | 32 |
| 1-Butyl-3-isopropyl-2-oxo-1,4,8-triazaspiro[4,5]decan-8-thiocarboxylic acid (3-chlorobenzol)amide [Example 142] | 63 |
| CSCCC1NC2(CCN(C(=S)NCc3ccc(Cl)cc3)CC2)N(Cc2cccc(C#N)c2)C1=O (centres unmarked) [Example 185, 1-(3-Cyanobenzyl)-3-(2-methylsulfanylethyl)-2-oxo-1,4,8-triazaspiro[4,5]decan-8-thiocarboxylic acid 4-chlorobenzylamide] | 72 |
| C#CCN1C(=O)C(CC(C)C)NC12CCN(C(=S)Nc1c(Cl)cccc1Cl)CC2 (centres unmarked) [Example 190, 3-Isobutyl-2-oxo-1-prop-2-ynyl-1,4,8-triazaspiro[4,5]decan-8-thiocarboxylic acid (2,6-dichlorobenzol)amide] | 53 |
| 1-Methyl-3-(2-methylsulfanylethyl)-2-oxo-1,4,8-triazaspiro[4,5]decan-8-thiocarboxylic acid (3-trifluoromethylbenzol)amide [Example 194] | 36 |
| C=CCN1C(=O)C(C(C)C)NC12CCN(C(=O)Nc1cc(F)ccc1F)CC2 (centres unmarked) [Example 209, 1-Allyl-3-isopropyl-2-oxo-1,4,8-triazaspiro[4,5]decan-8-carboxylic acid (2,5-difluorobenzol)amide] | 31 |
| CN1C(=O)C(Cc2ccccc2)NC12CCN(C(=S)NCc1cc(F)ccc1F)CC2 (centres unmarked) [Example 118, 3-Benzyl-1-methyl-2-oxo-1,4,8-triazaspiro[4,5]decan-8-thiocarboxylic acid (2,5-difluorobenzol)amide] | 42 |
| CSCCC1NC2(CCN(C(=O)NCc3ccc(Cl)c(Cl)c3)CC2)N(Cc2ccc(F)cc2)C1=O (centres unmarked) [Example 228, 1-(4-Fluorobenzyl)-3-(2-methylsulfanylethyl)-2-oxo-1,4,8-triazaspiro[4,5]decan-8-carboxylic acid 3,4-dichlorobenzylamide] | 87 |
| CC(C)C1NC2(CCN(C(=S)NCc3ccccc3)CC2)N(Cc2ccccc2)C1=O (centres unmarked) [Example 199, 1-Benzyl-3-isopropyl-2-oxo-1,4,8-triazaspiro[4,5]decan-8-thiocarboxylic acid benzylamide] | 44 |
| CC(C)CC1NC2(CCN(C(=O)Nc3cc(F)ccc3F)CC2)N(Cc2ccccc2C#N)C1=O (centres unmarked) [Example 218, 1-(2-Cyanobenzyl)-3-isobutyl-2-oxo-1,4,8-triazaspiro[4,5]decan-8-carboxylic acid (2,5-difluorobenzol)amide] | 40 |
| COC(=O)c1ccc(CN2C(=O)C(C(C)C)NC23CCN(C(=S)NCc2ccc(Cl)cc2)CC3)cc1 (centres unmarked) [Example 191, Methyl 4-[8-(4-chlorobenzylthiocarbamoyl)-3-isopropyl-2-oxo-1,4,8-triazaspiro[4,5]dec-1-ylmethyl]-benzoate] | 74 |
| COC(=O)c1ccc(CN2C(=O)C(C(C)C)NC23CCN(C(=O)NCc2ccc(Cl)c(Cl)c2)CC3)cc1 (centres unmarked) [Example 232, Methyl 4-[8-(3,4-dichlorobenzylcarbamoyl)-3-isopropyl-2-oxo-1,4,8-triazaspiro[4,5]dec-1-ylmethyl]-benzoate] | 55 |
| C=CCN1C(=O)C(C(C)C)NC12CCN(S(=O)(=O)c1c(C)cc(C)cc1C)CC2 (centres unmarked) [Example 70, 1-Allyl-3-isopropyl-8-(2,4,6-trimethylbenzolsulfonyl)-1,4,8-triazaspiro[4,5]decan-2-one] | 60 |
| Cc1cc(S(=O)(=O)N2CCC3(CC2)NC(CC(C)C)C(=O)N3Cc2ccccc2)c(C)cc1Cl (centres unmarked) [Example 27, 1-Benzyl-8-(4-chloro-2,5-dimethylbenzolsulfonyl)-3-isobutyl-1,4,8-triazaspiro[4,5]decan-2-one] | 59 |
| 1-Allyl-3-isopropyl-2-oxo-1,4,8-triazaspiro[4,5]decan-8-thiocarboxylic acid (3,5-dichlorobenzol)amide [Example 180] | 54 |
| Cc1ccc(S(=O)(=O)N2CCC3(CC2)NC(C(C)C)C(=O)N3CCOc2ccccc2)cc1 (centres unmarked) [Example 21, 3-Isopropyl-1-(2-phenoxy-ethyl)-8-(toluol-4-sulfonyl)-1,4,8-triazaspiro[4,5]decan-2-one] | 54 |
